Patent EP3441078A1, “PHARMACEUTICAL PRODUCT FOR TREATING LUPUS ERY[…] COMBINED IMMUNE DEFECT, AND PREPARATION AND APPLICATION THEREOF” (Beijing Lu De Kai Qi Co., Ltd., priority 2016, dated 2017)
Read-outs that look alike come from different tables or passages of the source. Marks after values point to notes of the source that are not given here.

How the values were obtained:
[1] = test system: polychromatic erythrocytes in bone marrow of mice; details: 50mg/kg•bw, positive control; for Number of Micronuclei(in Ge): 5000 cells inspected; for Permillage of Micronuclei: P<0.01 vs negative control
Procedure: (§1) The healthy Kunming mice provided by the Experimental Animal Center of the National Institute for the Control of Pharmaceutical and Biological Products were selected.
The assay was carried out via oral gavage and the administration was performed twice at intervals of 24 hrs. 50 mice weighing 25-30 g were randomly divided into 5 groups according to body weight, 10 in each group, half male and half female. […] The doses of the anti-lupus erythematosus pharmaceutical product for combined immunization according to the present invention were 2.00, 4.00, and 6.00 g/kg•bw, respectively, which were adjusted to the desired concentration with distilled water. The animals were sacrificed by cervical dislocation six hours after the last administration of the anti-lupus erythematosus pharmaceutical product for combined immunization according to the present invention. The bone marrow of sternum was acquired and diluted with calf serum, smeared, fixed in methanol, and stained with Giemsa. Under the light microscope, 1000 polychromatic erythrocytes (PRC) were measured per animal, and the incidence of micronucleus was determined by the permillage of micronucleus-containing PRC and statistically processed. […] Kunming healthy mice provided by Laboratory Animal Center of National Institutes for Food and Pharmaceutical product Control were selected.
The test was carried out by two-time intragastric administration at an interval of 24 hours.50 mice weighing 25-30 g were randomly divided into 5 groups according to their body weight. They were randomly divided into 5 groups according to their body weight, with 10 mice in each group, half male and half female. […] The doses of the anti-lupus erythematosus pharmaceutical product for combined immunization of the present invention were 2.00, 4.00 and 6.00 g/kg•bw respectively, and were mixed with distilled water to the desired concentration. The animals were sacrificed by cervical dislocation 6 hours after the last administration of the anti-lupus erythematosus pharmaceutical product for combined immunization of the present invention. The sternum bone marrow was diluted with calf serum, fixed with methanol, and stained with Giemsa. Under the light microscope, 1000 polychromatic erythrocytes (PRC) were counted per animal, and the incidence of micronuclei was measured by the permillage of micronucleus-containing PRC and statistically processed.

[2] = test system: sperm abnormality in mice; details: male mice, 40mg/kg•bw, positive control
Procedure: 1. […] The walnut extract, wormwood extract, American ginseng extract and shí hú extract were respectively taken, treated in a 70°C water bath for 1 hour, soaked for 12 hours, and concentrated for testing.
as §1
50 sexually mature male mice weighing 30-35 g were randomly divided into 5 groups. […] The doses of the anti-lupus erythematosus pharmaceutical product for combined immunization according to the present invention were 2.00, 4.00, and 6.00 g/kg•bw, respectively, and the desired concentration were adjusted with distilled water. The mice were administered via oral gavage once a day for 5 days, and the animals were sacrificed 30 days after the last gavage. The epididymis was acquired and sectioned and stained with eosin. Five animals were counted in each group and 1000 intact sperm were counted per animal. The incidence of sperm abnormality (in percentage) was calculated and statistically processed.

For `O=P1(N(CCCl)CCCl)NCCCO1` (stereo not drawn) [cp, cyclophosphamide], the “Number of Micronuclei(in Ge)” value ([1]; Female mice) was 150, the “Permillage of Micronuclei” value ([1]; Female mice) was 30.0* ‰ and the “Number of Micronuclei(in Ge)” value ([1]; Male mice) was 150. The “Permillage of Micronuclei” value ([1]; Male mice) was 30.0* ‰, the “Number of Abnormal Sperms(in Ge)” value ([2]; 5000 sperms inspected) was 480 and the “Percentage of Abnormal Sperms” value ([2]; P<0.01 vs negative control) was 9.6* %.
